According to patent publication US12583854B2, “KRAS G12C inhibitors and methods of using the same” (Amgen Inc., priority 2018, dated 2026):
Where two headings read alike, the source gives them in different places.

Legend:
[1] = molecular target: GDP-bound KRAS protein (aa 1-169), containing both G12C and C118A amino acid substitutions (Homo sapiens, UniProt P01116, C118A/G12C); assay: Coupled Nucleotide Exchange Assay; format: biochemical; settings: 5 min compound pre-incubation; SOS-mediated nucleotide exchange, AlphaScreen
Experimental: Following compound pre-incubation, purified SOS protein (aa 564-1049) and GTP (Roche 10106399001) were added to the assay wells and incubated for an additional 30 min. To determine the extent of inhibition of SOS-mediated nucleotide exchange, purified GST-tagged cRAF (aa 1-149), nickel chelate AlphaLISA acceptor beads (PerkinElmer AL108R), and AlphaScreen glutathione donor beads (PerkinElmer 6765302) were added to the assay wells and incubated for 10 minutes. The assay plates were then read on a PerkinElmer EnVision Multilabel Reader, using AlphaScreen® technology, and data were analyzed using a 4-parameter logistic model to calculate IC50 values.

[2] = system: Phosphorylation of ERK1/2 in MIA PaCa-2 cells; assay: Phospho-ERK1/2 MSD Assay; format: cell-based; settings: EGF stimulation 10 ng/mL, 10 min, read-out: p-ERK IC50 (2 h)
Experimental: Phospho-ERK1/2 MSD Assay: MIA PaCa-2 (ATCC® CRL-1420™) and A549 (ATCC® CCL-185™) cells were cultured in RPMI 1640 Medium (ThermoFisher Scientific 11875093) containing 10% fetal bovine serum (ThermoFisher Scientific 16000044) and 1× penicillin-streptomycin-glutamine (ThermoFisher Scientific 10378016). Sixteen hours prior to compound treatment, MIA PaCa-2 were seeded in 96-well cell culture plates at a density of 25,000 cells/well and incubated at 37° C., 5% CO2. A compound dose-response titration was diluted in growth media, added to appropriate wells of a cell culture plate, and then incubated at 37° C., 5% CO2 for 2 (see Table 10). Following compound treatment, cells were stimulated with 10 ng/mL EGF (Roche 11376454001) for 10 min, washed with ice-cold Dulbecco's phosphate-buffered saline, no Ca^2+ or Mg^2+ (ThermoFisher Scientific 14190144), and then lysed in RIPA buffer (50 mM Tris-HCl pH 7.5, 1% Igepal, 0.5% sodium deoxycholate, 150 mM NaCl, and 0.5% sodium dodecyl sulfate) containing protease inhibitors (Roche 4693132001) and phosphatase inhibitors (Roche 4906837001). Phosphorylation of ERK1/2 in compound-treated lysates was assayed using Phospho-ERK1/2 Whole Cell Lysate kits (Meso Scale Discovery K151DWD) according to the manufacturer's protocol. Assay plates were read on a Meso Scale Discovery Sector Imager 6000, and data were analyzed using a 4-parameter logistic model to calculate IC50 values.

[3] = Homo sapiens, MIA PaCa-2, 2 h compound treatment

GDP-bound KRAS protein (aa 1-169), containing both G12C and C118A amino acid substitutions, sequence (P01116 1-169 isoform P01116-2 G12C/C118A): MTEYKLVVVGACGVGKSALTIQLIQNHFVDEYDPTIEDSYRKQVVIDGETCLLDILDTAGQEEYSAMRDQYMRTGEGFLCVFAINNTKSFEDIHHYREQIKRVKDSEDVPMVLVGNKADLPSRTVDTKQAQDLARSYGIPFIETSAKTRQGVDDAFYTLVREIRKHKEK

SMILES | Coupled exchange IC50 (5 min; μM) [1] [µM] | IC50 [2, 3] [nM] | IC50 ([2]; 2 h compound treatment) [nM]
CC(C)c1ncnc(C(C)C)c1-n1c(=O)c(C#N)c(N2CCN(C(=O)/C=C/CN3CCCCC3)CC2)c2cc(Cl)c(-c3ccccc3F)nc21 [Example 3.1] | 1.02 | 4470 | –
C=CC(=O)N1CCN(c2c(C#N)c(=O)n(-c3c(C(C)C)ccnc3N(C)C)c3nc(-c4ccccc4F)c(Cl)cc23)CC1 (single isomer, unassigned) [Example 8.4, 4-(4-acryloylpiperazin-1-yl)-6-chloro-1-(2-(dimethylamino)-4-isopropylpyridin-3-yl)-7-(2-fluorophenyl)-2-oxo-1,2-dihydro-1,8-naphthyridine-3-carbonitrile] | 0.24 | – | 240
C=CC(=O)N1CCN(c2c(C#N)c(=O)n(-c3c(C(C)C)ccnc3C(C)C)c3nc(-c4ccccc4F)c(Cl)cc23)CC1 (single isomer, unassigned) [Example 8.1, 4-(4-acryloylpiperazin-1-yl)-6-chloro-1-(2,4-diisopropylpyridin-3-yl)-7-(2-fluorophenyl)-2-oxo-1,2-dihydro-1,8-naphthyridine-3-carbonitrile] | 0.07 | 320 | –
CC(C)c1ncnc(C(C)C)c1-n1c(=O)c(C#N)c(N2CCN(C(=O)/C=C/CNC(C)(C)C)CC2)c2cc(Cl)c(-c3ccccc3F)nc21 [Example 5.2, (E)-4-(4-(4-(tert-butylamino)but-2-enoyl)piperazin-1-yl)-6-chloro-1-(4,6-diisopropylpyrimidin-5-yl)-7-(2-fluorophenyl)-2-oxo-1,2-dihydro-1,8-naphthyridine-3-carbonitrile] | 0.44 | 390 | –
C=CC(=O)N1CCN(c2c(C#N)c(=O)n(-c3c(C)ccnc3C(C)C)c3nc(-c4ccccc4F)c(Cl)cc23)CC1 [Example 6.5, 4-(4-acryloylpiperazin-1-yl)-6-chloro-7-(2-fluorophenyl)-1-(2-isopropyl-4-methylpyridin-3-yl)-2-oxo-1,2-dihydro-1,8-naphthyridine-3-carbonitrile] | 0.10 | – | 60
C=CC(=O)N1CCN(c2c(C#N)c(=O)n(-c3c(C(C)C)ccnc3C(C)C)c3nc(-c4ccccc4F)c(Cl)cc23)CC1 (single isomer, unassigned) [Example 8.2, 4-(4-acryloylpiperazin-1-yl)-6-chloro-1-(2,4-diisopropylpyridin-3-yl)-7-(2-fluorophenyl)-2-oxo-1,2-dihydro-1,8-naphthyridine-3-carbonitrile] | 0.12 | – | 160
C=CC(=O)N1CCN(c2c(C#N)c(=O)n(-c3c(C(C)C)ccnc3N(C)C)c3nc(-c4ccccc4F)c(Cl)cc23)CC1 (single isomer, unassigned) [Example 8.8, 4-(4-acryloylpiperazin-1-yl)-6-chloro-1-(2-(dimethylamino)-4-isopropylpyridin-3-yl)-7-(2-fluorophenyl)-2-oxo-1,2-dihydro-1,8-naphthyridine-3-carbonitrile] | 0.09 | – | 50
CC(C)c1ncnc(C(C)C)c1-n1c(=O)c(C#N)c(N2CCN(C(=O)/C=C/C3CCCN3C)CC2)c2cc(Cl)c(-c3ccccc3F)nc21 (stereo not drawn) [Example 3.2] | 0.71 | 1260 | –
CC(C)c1ncnc(C(C)C)c1-n1c(=O)c(C#N)c(N2CCN(C(=O)/C=C/CN(C)C)CC2)c2cc(Cl)c(-c3ccccc3F)nc21 [Example 3, (E)-6-Chloro-1-(4,6-diisopropylpyrimidin-5-yl)-4-(4-(4-(dimethylamino)but-2-enoyl)piperazin-1-yl)-7-(2-fluorophenyl)-2-oxo-1,2-dihydro-1,8-naphthyridine-3-carbonitrile] | 0.4 | 720 | –
CC(C)c1ncnc(C(C)C)c1-n1c(=O)c(C#N)c(N2CCN(C(=O)/C=C/CNC3CC3)CC2)c2cc(Cl)c(-c3ccccc3F)nc21 [Example 5, (E)-6-Chloro-4-(4-(4-(cyclopropylamino)but-2-enoyl)piperazin-1-yl)-1-(4,6-diisopropylpyrimidin-5-yl)-7-(2-fluorophenyl)-2-oxo-1,2-dihydro-1,8-naphthyridine-3-carbonitrile] | 0.70 | 760 | –
C=CC(=O)N1CCN(c2c(C#N)c(=O)n(-c3c(C)ccnc3C(C)C)c3nc(-c4ccccc4F)c(Cl)cc23)CC1 [Example 6, 4-(4-Acryloylpiperazin-1-yl)-6-chloro-7-(2-fluorophenyl)-1-(2-isopropyl-4-methylpyridin-3-yl)-2-oxo-1,2-dihydro-1,8-naphthyridine-3-carbonitrile] | 0.17 | – | 170
C=CC(=O)N1CCN(c2c(C#N)c(=O)n(-c3c(C(C)C)ccnc3C(C)C)c3nc(-c4ccccc4C)c(Cl)cc23)CC1 (single isomer, unassigned) [Example 7.1, 4-(4-acryloylpiperazin-1-yl)-6-chloro-1-(2,4-diisopropylpyridin-3-yl)-2-oxo-7-(o-tolyl)-1,2-dihydro-1,8-naphthyridine-3-carbonitrile] | – | – | 140

The remaining lines, values ahead:

Coupled exchange IC50 (5 min; μM) [1] [µM] | IC50 [2, 3] [nM] | IC50 ([2]; 2 h compound treatment) [nM] | SMILES
0.18 | 260 | – | C=CC(=O)N1[C@H](C)CN(c2c(C#N)c(=O)n(-c3c(C)ccnc3C(C)C)c3nc(-c4ccccc4F)c(Cl)cc23)C[C@@H]1C (single isomer, unassigned) [Example 7.7]
0.20 | 150 | – | C=CC(=O)N1CCN(c2c(C#N)c(=O)n(-c3c(C)ccnc3C(C)C)c3nc(-c4ccccc4F)c(Cl)cc23)C[C@H]1C (single isomer, unassigned) [Example 6.7]
0.25 | 160 | – | C=CC(=O)N1CCN(c2c(C#N)c(=O)n(-c3c(N(C)C)ccnc3C(C)C)c3nc(-c4ccccc4F)c(Cl)cc23)CC1 (single isomer, unassigned) [Example 8.6, 4-(4-acryloylpiperazin-1-yl)-6-chloro-1-(4-(dimethylamino)-2-isopropylpyridin-3-yl)-7-(2-fluorophenyl)-2-oxo-1,2-dihydro-1,8-naphthyridine-3-carbonitrile]
0.07 | 40 | – | C=CC(=O)N1CCN(c2c(C#N)c(=O)n(-c3c(C(C)C)ncnc3C(C)C)c3nc(-c4ccccc4F)c(Cl)cc23)CC1 [Example 6.3, 4-(4-acryloylpiperazin-1-yl)-6-chloro-1-(4,6-diisopropylpyrimidin-5-yl)-7-(2-fluorophenyl)-2-oxo-1,2-dihydro-1,8-naphthyridine-3-carbonitrile]
0.18 | 260 | – | C=CC(=O)N1[C@H](C)CN(c2c(C#N)c(=O)n(-c3c(C)ccnc3C(C)C)c3nc(-c4ccccc4F)c(Cl)cc23)C[C@@H]1C [Example 7.3, 4-((3R,5S)-4-acryloyl-3,5-dimethylpiperazin-1-yl)-6-chloro-7-(2-fluorophenyl)-1-(2-isopropyl-4-methylpyridin-3-yl)-2-oxo-1,2-dihydro-1,8-naphthyridine-3-carbonitrile]
0.13 | 90 | – | C=CC(=O)N1CCN(c2c(C#N)c(=O)n(-c3c(C(C)C)ncnc3C(C)C)c3nc(-c4c(N)cccc4F)c(Cl)cc23)CC1 [Example 11.4, 4-(4-acryloylpiperazin-1-yl)-7-(2-amino-6-fluorophenyl)-6-chloro-1-(4,6-diisopropylpyrimidin-5-yl)-2-oxo-1,2-dihydro-1,8-naphthyridine-3-carbonitrile]
0.15 | 120 | – | C=CC(=O)N1CCN(c2c(C#N)c(=O)n(-c3c(C)ccnc3C(C)C)c3nc(-c4ccccc4C)c(Cl)cc23)CC1 (single isomer, unassigned) [Example 11.1, 4-(4-acryloylpiperazin-1-yl)-6-chloro-1-(2-isopropyl-4-methylpyridin-3-yl)-2-oxo-7-(o-tolyl)-1,2-dihydro-1,8-naphthyridine-3-carbonitrile]
0.06 | 120 | – | C=CC(=O)N1CCN(c2c(C#N)c(=O)n(-c3c(C(C)C)ccnc3C(C)C)c3nc(-c4ccccc4F)c(Cl)cc23)CC1 (racemic) [Example 8, 4-(4-Acryloylpiperazin-1-yl)-6-chloro-1-(2,4-diisopropylpyridin-3-yl)-7-(2-fluorophenyl)-2-oxo-1,2-dihydro-1,8-naphthyridine-3-carbonitrile]
